Data taken from publication PMC9570594, “Development of Novel Pyridine-Thiazole Hybrid Molecules as Potential Anticancer Agents” (Molecules, 2022).
Read-outs that look alike come from different tables or passages of the source.

Legend:
CCRF-CEM (Leukemia) = experiment: NCI five-dose SRB assay; type: cell-based; settings: Homo sapiens, 48 h
HL-60(TB) (Leukemia) = experiment: NCI five-dose SRB assay; type: cell-based; settings: Homo sapiens, 48 h
[1] = system: Leukemia cell lines (MG_MID); experiment: NCI five-dose SRB assay; type: cell-based; settings: Homo sapiens, 48 h
[2] = system: EKVX (Non-Small Cell Lung Cancer); experiment: NCI five-dose SRB assay; type: cell-based; settings: Homo sapiens, 48 h
[3] = system: NCI-H322M (Non-Small Cell Lung Cancer); experiment: NCI five-dose SRB assay; type: cell-based; settings: Homo sapiens, 48 h
HCT-15 (Colon Cancer) [4] = experiment: NCI five-dose SRB assay; type: cell-based; settings: Homo sapiens, 48 h
HT29 (Colon Cancer) = experiment: NCI five-dose SRB assay; type: cell-based; settings: Homo sapiens, HT-29, 48 h
SF-268 (CNS Cancer) = experiment: NCI five-dose SRB assay; type: cell-based; settings: Homo sapiens, 48 h
SNB-19 (CNS Cancer) = experiment: NCI five-dose SRB assay; type: cell-based; settings: Homo sapiens, 48 h
U251 (CNS Cancer) [5] = experiment: NCI five-dose SRB assay; type: cell-based; settings: Homo sapiens, U-251, 48 h
LOX IMVI (Melanoma) = experiment: NCI five-dose SRB assay; type: cell-based; settings: Homo sapiens, 48 h
SK-MEL-28 (Melanoma) = experiment: NCI five-dose SRB assay; type: cell-based; settings: Homo sapiens, 48 h
SK_MEL-5 (Melanoma) = experiment: NCI five-dose SRB assay; type: cell-based; settings: Homo sapiens, SK-MEL-5, 48 h
[6] = system: Melanoma cell lines (MG_MID); experiment: NCI five-dose SRB assay; type: cell-based; settings: Homo sapiens, 48 h
OVCAR-3 (Ovarian Cancer) = experiment: NCI five-dose SRB assay; type: cell-based; settings: Homo sapiens, 48 h
OVCAR-4 (Ovarian Cancer) = experiment: NCI five-dose SRB assay; type: cell-based; settings: Homo sapiens, 48 h
OVCAR-8 (Ovarian Cancer) = experiment: NCI five-dose SRB assay; type: cell-based; settings: Homo sapiens, 48 h
[7] = system: NCI/ADR-RES (Ovarian Cancer); experiment: NCI five-dose SRB assay; type: cell-based; settings: Homo sapiens, 48 h
SK-OV-3 (Ovarian Cancer) = experiment: NCI five-dose SRB assay; type: cell-based; settings: Homo sapiens, 48 h
ACHN (Renal Cancer) = experiment: NCI five-dose SRB assay; type: cell-based; settings: Homo sapiens, 48 h
CAKI-1 (Renal Cancer) = experiment: NCI five-dose SRB assay; type: cell-based; settings: Homo sapiens, 48 h
RXF 393 (Renal Cancer) = experiment: NCI five-dose SRB assay; type: cell-based; settings: Homo sapiens, 48 h
PC-3 (Prostate Cancer) = experiment: NCI five-dose SRB assay; type: cell-based; settings: Homo sapiens, 48 h
DU-145 (Prostate Cancer) = experiment: NCI five-dose SRB assay; type: cell-based; settings: Homo sapiens, 48 h
[8] = system: MDA-MB-231/ATCC (Breast Cancer); experiment: NCI five-dose SRB assay; type: cell-based; settings: Homo sapiens, 48 h
BT-549 (Breast Cancer) = experiment: NCI five-dose SRB assay; type: cell-based; settings: Homo sapiens, 48 h
[9] = system: full panel of human tumor cell lines (MG_MID); experiment: NCI five-dose SRB assay, full panel; type: cell-based
Description: Using absorbance measurements [time zero (Tz), control growth in the absence of drug (C), and test growth in the presence of drug (Ti)], the percentage growth was calculated for each drug concentration. Percentage growth inhibition was calculated as:
Dose response parameters (GI50, TGI, LC50) were calculated for each compound. […] The drug concentration resulting in total growth inhibition (TGI) was calculated from Ti = Tz. […] Values were calculated for each of these parameters if the level of activity was reached; however, if the effect was not reached or was excessive, the value for that parameter was expressed as more or less than the maximum or minimum concentration tested.

KB3-1 cells = experiment: Fluorescent microscopy of morphological changes (Hoechst 33342/PI); type: cell-based, human; settings: KB3-1, 5 µM, 48 h
Description: In addition, we observed multinucleated giant cells. […] The condensed chromatin, a characteristic feature of apoptosis, and dead cells were observed under the action of all studied compounds.
KB3-1 cells were seeded in the 12-well plates (CytoONE, STARLAB International GmbH, Hamburg, Germany) on glass microscopic slides and incubated overnight. Studied compounds were added to cells in the following concentrations: the compounds 3, 4 and cisplatin—5 µM/mL, doxorubicin—1 µM/mL. Cells were incubated for the next 48 h. Chromatin material of living and apoptotic cells was stained with the DNA-specific fluorescent dye Hoechst 33342 (Sigma-Aldrich, Burlington, MA, USA) and the DNA/RNA-specific fluorescent dye Propidium iodide (PI, Sigma, Burlington, MA, USA). Fluorochromes were added to cultured cells at final concentrations 0.2–0.5 μg/mL for Hoechst 33342 and 0.1 μg/mL—for PI. Images were made with a fluorescent Zeiss microscope (Carl Zeiss, Oberkochen, Germany). Magnification ×400. Microphotographs were additionally analyzed using ImagePro7N software.

MCF-7 cells = experiment: Chemical synthetic lethality: MTT after preincubation with MGMT inhibitor Lomeguatrib; type: cell-based, human; settings: for IC50: Homo sapiens, MCF7, 72 h MTT
HCT-15 (Colon Cancer) [10] = experiment: NCI one-dose SRB assay; settings: 10 μM, 48 h
Description: Tested compounds were added to the culture at a single concentration (10^−5 M) and the cultures were incubated for 48 h. End point determinations were made with a protein binding dye, Sulphorhodamine B (SRB). […] The percentage growth was evaluated spectrophotometrically versus controls not treated with test agents.

KM12 (Colon Cancer) = experiment: NCI one-dose SRB assay; settings: 10 μM, 48 h
Description: (§1) A primary anticancer assay was performed on a panel of approximately sixty human tumor cell lines derived from nine neoplastic diseases, in accordance with the protocol of the Drug Evaluation Branch, National Cancer Institute, Bethesda [31, 32, 33, 34, 35]. Tested compounds were added to the culture at a single concentration (10^−5 M) and the cultures were incubated for 48 h. End point determinations were made with a protein binding dye, Sulphorhodamine B (SRB). […] The percentage growth was evaluated spectrophotometrically versus controls not treated with test agents.

U251 (CNS Cancer) [11] = experiment: NCI one-dose SRB assay; settings: 10 μM, 48 h
Description: as §1

HCT-116 (colon) = experiment: MTT assay of cell viability; settings: Homo sapiens, HCT-116, 72 h, HCT-116; 72 h of incubation, M ± SD

CCOC(=O)c1ccc(NC(=O)CSC(CC(=O)c2sc(Nc3ccccn3)nc2C)c2ccccc2F)cc1 (stereo not drawn) [Compound 4, Ethyl 4-[[2-[1-(2-Fluorophenyl)-3-[4-methyl-2-(2-pyridylamino)thiazol-5-yl]-3-oxopropyl]sulfanylacetyl]amino]benzoate]
GI50 (CCRF-CEM (Leukemia)): 18.6 µM | GI50 (HL-60(TB) (Leukemia)): 21.4 µM | GI50 [1]: 22.5 µM | GI50 [2]: 19 µM | GI50 [3]: 25.4 µM | GI50 (HCT-15 (Colon Cancer) [4]): 25.8 µM | GI50 (HT29 (Colon Cancer)): 58.3 µM | GI50 (SF-268 (CNS Cancer)): 43.1 µM | GI50 (SNB-19 (CNS Cancer)): 36.9 µM | GI50 (U251 (CNS Cancer) [5]): 47.8 µM | GI50 (LOX IMVI (Melanoma)): 312 nM | GI50 (SK-MEL-28 (Melanoma)): 38.7 µM | GI50 (SK_MEL-5 (Melanoma)): 18.6 µM | GI50 [6]: 25.3 µM | GI50 (OVCAR-3 (Ovarian Cancer)): 31.7 µM | GI50 (OVCAR-4 (Ovarian Cancer)): 66.1 µM | GI50 (OVCAR-8 (Ovarian Cancer)): 53.6 µM | GI50 [7]: 24.1 µM | GI50 (SK-OV-3 (Ovarian Cancer)): 26 µM | GI50 (ACHN (Renal Cancer)): 45.6 µM | GI50 (CAKI-1 (Renal Cancer)): 11.5 µM | GI50 (RXF 393 (Renal Cancer)): 2590 nM | GI50 (PC-3 (Prostate Cancer)): 23.8 µM | GI50 (DU-145 (Prostate Cancer)): 67.2 µM | GI50 [8]: 19.3 µM | GI50 (BT-549 (Breast Cancer)): 14.7 µM | GI50 ([9]; Homo sapiens, RPMI-8226, NCI-H226, SNB-75, SF 539, M14, MDA-MB-435, UO-31, RXF 393, MDA-MB-468, read-out: active concentration range (GI50) towards most sensitive lines): 2.52 to 8.29 µM | GI50 ([9]; Homo sapiens, full panel MG_MID (average GI50), 48 h, read-out: GI50): 31.7 µM | LC50 (concentration giving 50% net tumour cell kill) ([9]; Homo sapiens, full panel, mainly): > 100 µM | TGI ([9]; full panel, mainly): > 100 µM | morphological changes (KB3-1 cells): changes in nuclear morphology, similar to a mitotic catastrophe | IC50 (MCF-7 cells; MCF-7, 3 h preincubation with Lomeguatrib, read-out: IC50 with the MGMT inhibitor): 720 nM | IC50 (MCF-7 cells; MCF-7, compound alone, read-out: IC50): 2280 nM | enhancement of sensitivity by Lomeguatrib preincubation (MCF-7 cells; MCF-7): 3 times | combination effect with the MGMT inhibitor (MCF-7 cells; MCF-7, compared with individual treatments): synergistic activity | Growth % (HCT-15 (Colon Cancer) [10]): −42.04% | Growth % (KM12 (Colon Cancer)): −59.82% | Growth % (U251 (CNS Cancer) [11]): −70.41% | IC50 (HCT-116 (colon)): 6.11 ± 0.24 µM
